Emax and EC50 data for 15 compounds are collected here from patent publication US20260108546A1 (ELI LILLY AND COMPANY, priority 2024, published 2026).

The target in the assay is T1, hGIP-R (Homo sapiens, UniProt P48546).
T1 construct: expressed in transfected cells; host or cells: HEK-293 clonal cell lines
T1 sequence (P48546 22-466): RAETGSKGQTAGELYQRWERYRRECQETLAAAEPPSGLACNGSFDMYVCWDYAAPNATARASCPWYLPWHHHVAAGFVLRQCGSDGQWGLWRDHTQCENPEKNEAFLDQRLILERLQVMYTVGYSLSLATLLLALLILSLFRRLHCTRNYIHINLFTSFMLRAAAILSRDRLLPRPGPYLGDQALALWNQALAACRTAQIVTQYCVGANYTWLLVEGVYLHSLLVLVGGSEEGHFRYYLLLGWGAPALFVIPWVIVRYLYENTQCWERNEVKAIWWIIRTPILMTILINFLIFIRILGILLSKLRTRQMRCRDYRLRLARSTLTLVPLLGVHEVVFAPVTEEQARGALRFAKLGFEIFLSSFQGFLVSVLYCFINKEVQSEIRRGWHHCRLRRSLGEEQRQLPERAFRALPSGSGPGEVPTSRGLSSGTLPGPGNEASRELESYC
Briefly: Functional hGIP-R Assay (cAMP formation, HTRF). The settings on record: for Emax: cAMP efficacy, percent of maximal response to GIP(1-42)OH, 37° C., 0.1% bovine casein, arithmetic mean ± SEM; for EC50: cAMP potency, HEK-293 cells expressing hGIP-R, incubated at 37° C. in the presence of 0.1% bovine casein, geometric mean, read-out: Human GIP-R EC50, nM (SEM, n). In kind it is cell-based. The procedure, abridged: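 HEK-293 cells expressing hGIP-R were given a 20-point compound series in DMEM with 0.1% casein, 250 μM IBMX, 1% DMSO, 30 min at 37 °C. cAMP was read by HTRF against a standard curve, expressed as % of human GIP (1-42) OH maximum; EC50 and Emax came from four-parameter fits.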

`CN(C(=O)[C@H]1C[C@@H]1c1ccc(-c2cnc3nn(C)cc3c2)cc1)[C@H](Cc1cnn(C)c1)C(=O)NC(C)(C)Cn1nc(C(F)(F)F)cc1-c1cn[nH]n1` [Example 70, (1S,2S)-N-((R)-1-((1-(5-(2H-1,2,3-Triazol-4-yl)-3-(trifluoromethyl)-1H-pyrazol-1-yl)-2-methylpropan-2-yl)amino)-3-(1-methyl-1H-pyrazol-4-yl)-1-oxopropan-2-yl)-N-methyl-2-(4-(2-methyl-2H-pyrazolo [3,4-b]pyridin-5-yl)phenyl)cyclopropane-1-carboxamide]: the Emax was 102 ± 2.2% and the EC50 is 158 nM.

In the case of `CC(C)(Cn1cc(C(F)(F)F)cn1)NC(=O)[C@@H](Cc1cnc2ncccn12)NC(=O)[C@H]1C[C@@H]1c1ccc(-c2cnc3nc(C4CC(F)(F)C4)cn3c2)cc1` [Example 74, (1S,2S)-2-(4-(2-(3,3-Difluorocyclobutyl)imidazo[1,2-a]pyrimidin-6-yl)phenyl)-N-((R)-3-(imidazo[1,2-a]pyrimidin-3-yl)-1-((2-methyl-1-(4-(trifluoromethyl)-1H-pyrazol-1-yl)propan-2-yl)amino)-1-oxopropan-2-yl)cyclopropane-1-carboxamide], the maximum response (Emax) turned out to be 102 ± 3.65% and the half-maximal effective concentration (EC50) amounted to 13.6 nM.

Regarding `COCc1cn2cc(-c3ccc([C@H]4C[C@@H]4C(=O)N[C@H](Cc4cnc5ncccn45)C(=O)NC(C)(C)Cn4cc(C(F)(F)F)cn4)cc3)cnc2n1` [Example 75, (1S,2S)-N-((R)-3-(Imidazo[1,2-a]pyrimidin-3-yl)-1-((2-methyl-1-(4-(trifluoromethyl)-1H-pyrazol-1-yl)propan-2-yl)amino)-1-oxopropan-2-yl)-2-(4-(2-(methoxymethyl)imidazo[1,2-a]pyrimidin-6-yl)phenyl)cyclopropane-1-carboxamide], the Emax amounted to 119 ± 6.64% and the EC50 came out at 65 nM.

Turning to `CC(C)(Cn1cc(C(F)(F)F)cn1)NC(=O)[C@@H](Cc1cnc2ncccn12)NC(=O)[C@H]1C[C@@H]1c1ccc(-c2cnc3nc(C4CC4)cn3c2)cc1` [Example 76, (1S,2S)-2-(4-(2-Cyclopropylimidazo[1,2-a]pyrimidin-6-yl)phenyl)-N-((R)-3-(imidazo[1,2-a]pyrimidin-3-yl)-1-((2-methyl-1-(4-(trifluoromethyl)-1H-pyrazol-1-yl)propan-2-yl)amino)-1-oxopropan-2-yl)cyclopropane-1-carboxamide], the Emax was 97.2 ± 7.63% and the 50% effective concentration (EC50) was determined as 16.2 nM.

On to `CC(C)(Cn1cc(C(F)(F)F)cn1)NC(=O)[C@@H](Cc1cnc2ncccn12)NC(=O)[C@H]1C[C@@H]1c1ccc(-c2cnc3nn(CC4CCC4)cc3c2)cc1` [Example 77, (1S,2S)-2-(4-(2-(Cyclobutylmethyl)-2H-pyrazolo[3,4-b]pyridin-5-yl)phenyl)-N-((R)-3-(imidazo[1,2-a]pyrimidin-3-yl)-1-((2-methyl-1-(4-(trifluoromethyl)-1H-pyrazol-1-yl)propan-2-yl)amino)-1-oxopropan-2-yl)cyclopropane-1-carboxamide], for which the Emax is 103 ± 12% and the EC50 was determined as 88.2 nM.

Regarding `CC(C)(Cn1cc(C(F)(F)F)cn1)NC(=O)[C@@H](Cc1cnc2ncccn12)NC(=O)[C@H]1C[C@@H]1c1ccc(-c2cnc3nc(C4CCC4)cn3c2)cc1` [Example 78, (1S,2S)-2-(4-(2-Cyclobutylimidazo[1,2-a]pyrimidin-6-yl)phenyl)-N-((R)-3-(imidazo[1,2-a]pyrimidin-3-yl)-1-((2-methyl-1-(4-(trifluoromethyl)-1H-pyrazol-1-yl)propan-2-yl)amino)-1-oxopropan-2-yl)cyclopropane-1-carboxamide], the Emax was determined as 113 ± 18.8% and the EC50 is 20.3 nM.

Take `CC(C)(Cn1cc(C(F)(F)F)cn1)NC(=O)[C@@H](Cc1cnc2ncccn12)NC(=O)[C@H]1C[C@@H]1c1ccc(-c2cnc3nc(C(F)F)cn3c2)cc1` [Example 79, (1S,2S)-2-(4-(2-(Difluoromethyl)imidazo[1,2-a]pyrimidin-6-yl)phenyl)-N-((R)-3-(imidazo[1,2-a]pyrimidin-3-yl)-1-((2-methyl-1-(4-(trifluoromethyl)-1H-pyrazol-1-yl)propan-2-yl)amino)-1-oxopropan-2-yl)cyclopropane-1-carboxamide]: the Emax was found to be 104 ± 5% and the concentration for a half-maximal effect (EC50) came to 25.1 nM.

On to `CC(C)(Cn1cc(C(F)(F)F)cn1)NC(=O)[C@@H](Cc1cnc2ncccn12)NC(=O)[C@H]1C[C@@H]1c1ccc(-c2cnc3nc(C(C)(F)F)cn3c2)cc1` [Example 80, (1S,2S)-2-(4-(2-(1,1-Difluoroethyl)imidazo[1,2-a]pyrimidin-6-yl)phenyl)-N-((R)-3-(imidazo[1,2-a]pyrimidin-3-yl)-1-((2-methyl-1-(4-(trifluoromethyl)-1H-pyrazol-1-yl)propan-2-yl)amino)-1-oxopropan-2-yl)cyclopropane-1-carboxamide], for which the Emax was determined as 109 ± 4.1% and the EC50 came out at 28.6 nM.

In the case of `CC(C)(Cn1cc(C(F)(F)F)cn1)NC(=O)[C@@H](Cc1cnc2ncccn12)NC(=O)[C@H]1C[C@@H]1c1ccc(-c2cnc3nc(C4(C)CC4)cn3c2)cc1` [Example 81, (1S,2S)-N-((R)-3-(Imidazo[1,2-a]pyrimidin-3-yl)-1-((2-methyl-1-(4-(trifluoromethyl)-1H-pyrazol-1-yl)propan-2-yl)amino)-1-oxopropan-2-yl)-2-(4-(2-(1-methylcyclopropyl)imidazo[1,2-a]pyrimidin-6-yl)phenyl)cyclopropane-1-carboxamide], the Emax amounted to 117 ± 0.667% and the EC50 came out at 33.1 nM.

For `CCc1cn2cc(-c3ccc([C@H]4C[C@@H]4C(=O)N[C@H](Cc4cnc5ncccn45)C(=O)NC(C)(C)Cn4cc(C(F)(F)F)cn4)cc3)cnc2n1` [Example 82, (1S,2S)-2-(4-(2-Ethylimidazo[1,2-a]pyrimidin-6-yl)phenyl)-N-((R)-3-(imidazo[1,2-a]pyrimidin-3-yl)-1-((2-methyl-1-(4-(trifluoromethyl)-1H-pyrazol-1-yl)propan-2-yl)amino)-1-oxopropan-2-yl)cyclopropane-1-carboxamide], the maximum response (Emax) was 106 ± 2.58% and the 50% effective concentration (EC50) turned out to be 36.4 nM.

With `Cc1cn2cc(-c3ccc([C@H]4C[C@@H]4C(=O)N[C@H](Cc4cnc5ncccn45)C(=O)NC(C)(C)Cn4cc(C(F)(F)F)cn4)cc3)cnc2n1` [Example 83, (1S,2S)-N-((R)-3-(Imidazo[1,2-a]pyrimidin-3-yl)-1-((2-methyl-1-(4-(trifluoromethyl)-1H-pyrazol-1-yl)propan-2-yl)amino)-1-oxopropan-2-yl)-2-(4-(2-methylimidazo[1,2-a]pyrimidin-6-yl)phenyl)cyclopropane-1-carboxamide], the Emax amounted to 95.4 ± 7.12% and the EC50 was 44.1 nM.

Turning to `CC(C)(Cn1cc(C(F)(F)F)cn1)NC(=O)[C@@H](Cc1cnc2ncccn12)NC(=O)[C@H]1C[C@@H]1c1ccc(-c2cnc3nn(C4CCC4)cc3c2)cc1` [Example 84, (1S,2S)-2-(4-(2-Cyclobutyl-2H-pyrazolo[3,4-b]pyridin-5-yl)phenyl)-N-((R)-3-(imidazo[1,2-a]pyrimidin-3-yl)-1-((2-methyl-1-(4-(trifluoromethyl)-1H-pyrazol-1-yl)propan-2-yl)amino)-1-oxopropan-2-yl)cyclopropane-1-carboxamide], the Emax came out at 89.7% and the EC50 came out at 37.8 nM.

For the compound `CC(C)(Cc1ccc(F)cn1)NC(=O)[C@@H](Cc1cnc2ncccn12)NC(=O)[C@H]1C[C@@H]1c1ccc(-c2cnc3nc(C(F)(F)F)cn3c2)cc1` [Example 85, (1S,2S)-N-((R)-1-((1-(5-Fluoropyridin-2-yl)-2-methylpropan-2-yl)amino)-3-(imidazo[1,2-a]pyrimidin-3-yl)-1-oxopropan-2-yl)-2-(4-(2-(trifluoromethyl)imidazo[1,2-a]pyrimidin-6-yl)phenyl)cyclopropane-1-carboxamide], the Emax was found to be 87 ± 0.761% and the EC50 stood at 41 nM.

Turning to `CC(C)(Cc1ccc(F)cc1)NC(=O)[C@@H](Cc1cnc2ncccn12)NC(=O)[C@H]1C[C@@H]1c1ccc(-c2cnc3nc(C(F)(F)F)cn3c2)cc1` [Example 86, (1S,2S)-N-((R)-1-((1-(4-Fuorophenyl)-2-methylpropan-2-yl)amino)-3-(imidazo[1,2-a]pyrimidin-3-yl)-1-oxopropan-2-yl)-2-(4-(2-(trifluoromethyl)imidazo[1,2-a]pyrimidin-6-yl)phenyl)cyclopropane-1-carboxamide], the Emax turned out to be 71.1 ± 2.32% and the concentration for a half-maximal effect (EC50) is 10.2 nM.

Take `CC(C)(Cc1ccc(F)cc1)NC(=O)[C@@H](Cc1cnc2ncccn12)NC(=O)[C@H]1C[C@@H]1c1ccc(-c2cnc3nccn3c2)cc1` [Example 87, (1S,2S)-N-((R)-1-((1-(4-Fluorophenyl)-2-methylpropan-2-yl)amino)-3-(imidazo[1,2-a]pyrimidin-3-yl)-1-oxopropan-2-yl)-2-(4-(imidazo[1,2-a]pyrimidin-6-yl)phenyl)cyclopropane-1-carboxamide]: the Emax turned out to be 71.1 ± 9.09% and the concentration giving a half-maximal response (EC50) was 52.7 nM.

A word on the Emax: it is the maximal effect, on the per cent scale that the assay sets. In general, EC50 refers to the concentration at which the effect is half-maximal.
